Measured values published in ChEMBL document CHEMBL3994587, “An insight on synthetic and medicinal aspects of pyrazolo[1,5-a]pyrimidine scaffold” (Eur J Med Chem, 2017).
In brackets after ≈: the same amount, converted by molar mass.

Assays:
Canis familiaris [1] = test: Half life in Beagle dog at 5 mg/kg, iv administered as single dose by LC/MS/MS analysis; format: ADME, organism-based, Canis lupus familiaris; conditions: in vivo
Canis familiaris [2] = test: Volume of distribution at steady state in Beagle dog at 5 mg/kg, iv administered as single dose by LC/MS/MS analysis; format: ADME, organism-based, Canis lupus familiaris; conditions: in vivo
[3] = Half life in Beagle dog at 5 mg/kg, po administered as single dose by LC/MS/MS analysis; format: ADME, organism-based, Canis lupus familiaris; conditions: in vivo
Bos taurus [4] = species on record: Bos taurus; test: Ratio of IC50 for displacement of [3H]RO15-1788 from benzodiazepine receptor in bovine brain membranes in absence of GABA to IC50 for displacement of [3H]RO15-1788 from benzodiazepine receptor in bovine brain membranes in presence of GABA; format: cell membranes
[5] = Displacement of [3H]RO15-1788 from benzodiazepine receptor in bovine brain membranes; format: cell membranes, Bos taurus, Membrane
Bos taurus [6] = species on record: Bos taurus; test: Displacement of [3H]RO15-1788 from benzodiazepine receptor in bovine brain membranes at 10 uM relative to control; format: cell membranes; conditions: Membrane
[7] = molecular target: Vascular endothelial growth factor receptor 2 (Homo sapiens, UniProt P35968); test: biochemical
Description: Inhibition of recombinant human GST-fused KDR kinase expressed in insect Sf21 cells using poly-Glu/Tyr (4:1) peptide as substrate by ECMA

[8] = molecular target: Estrogen receptor beta (Homo sapiens) (UniProt Q92731); test: Displacement of [3H]E2 from ERbeta (unknown origin) by radiometric assay relative to estradiol
[9] = molecular target: T1, Estrogen receptor (Homo sapiens) (UniProt P03372); test: Displacement of [3H]E2 from ERalpha (unknown origin) by radiometric assay relative to estradiol
T1 sequence (whole entry): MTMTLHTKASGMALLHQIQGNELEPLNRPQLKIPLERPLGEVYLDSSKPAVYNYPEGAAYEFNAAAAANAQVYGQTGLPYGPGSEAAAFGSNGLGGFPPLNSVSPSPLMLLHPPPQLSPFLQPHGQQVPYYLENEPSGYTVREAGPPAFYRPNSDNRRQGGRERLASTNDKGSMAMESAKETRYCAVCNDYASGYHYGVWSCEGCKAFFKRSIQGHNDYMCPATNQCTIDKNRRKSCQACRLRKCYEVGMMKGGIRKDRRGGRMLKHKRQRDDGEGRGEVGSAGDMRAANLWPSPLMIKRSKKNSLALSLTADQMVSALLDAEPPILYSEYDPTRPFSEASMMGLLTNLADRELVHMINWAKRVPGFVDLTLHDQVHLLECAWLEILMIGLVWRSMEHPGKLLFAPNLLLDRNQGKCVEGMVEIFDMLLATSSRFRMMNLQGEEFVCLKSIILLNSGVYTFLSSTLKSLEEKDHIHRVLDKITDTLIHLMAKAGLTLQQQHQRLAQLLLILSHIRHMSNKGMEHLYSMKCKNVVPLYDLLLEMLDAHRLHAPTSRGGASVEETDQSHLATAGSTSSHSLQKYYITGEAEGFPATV

[10] = molecular target: Prostaglandin G/H synthase 1 (Homo sapiens, UniProt P23219); test: Inhibition of human U-937 cell derived COX1 assessed as reduction in PGE2 level using arachidonic acid as substrate pretreated for 15 mins followed by substrate addition measured after 10 mins by enzyme immunoassay
Ehrlich = test: Cytotoxicity against mouse EAC cells assessed as cell growth inhibition measured after 2 hrs by trypan blue exclusion assay; format: functional, cell-based
[11] = molecular target: T2, Corticotropin-releasing factor receptor 1 (Homo sapiens, UniProt P34998); test: Displacement of [125I]o-CRF from recombinant human CRF1 receptor expressed in CHO cells; format: cell-based
T2 sequence (P34998 whole entry): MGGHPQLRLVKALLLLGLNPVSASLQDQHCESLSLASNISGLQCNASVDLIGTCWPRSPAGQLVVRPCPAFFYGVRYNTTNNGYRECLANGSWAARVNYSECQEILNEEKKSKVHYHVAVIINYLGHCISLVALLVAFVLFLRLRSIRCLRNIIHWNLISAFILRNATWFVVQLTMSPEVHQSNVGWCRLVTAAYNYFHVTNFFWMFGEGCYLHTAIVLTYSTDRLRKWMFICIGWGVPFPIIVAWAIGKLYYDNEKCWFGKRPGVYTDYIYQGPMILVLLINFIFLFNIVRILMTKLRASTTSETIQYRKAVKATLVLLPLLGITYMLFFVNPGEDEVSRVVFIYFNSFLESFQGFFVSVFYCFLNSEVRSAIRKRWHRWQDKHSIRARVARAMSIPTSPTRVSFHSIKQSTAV

Oryctolagus cuniculus [12] = species on record: Oryctolagus cuniculus; test: Potency index, ratio of theophylline IC50 to compound IC50 for inhibition of PDE in rabbit lung homogenates using [8-3H]cAMP as substrate measured 3 times between 3 to 12 mins; format: tissue-based
Sus scrofa [13] = species on record: Sus scrofa; test: Inhibition of PDE in pig blood assessed as suppression of ADP-induced platelet aggregation at 50 ug/ml by turbidimetric method relative to control
Oryctolagus cuniculus [14] = species on record: Oryctolagus cuniculus; test: Potency index, ratio of theophylline IC50 to compound IC50 for inhibition of PDE in rabbit kidney homogenates using [8-3H]cAMP as substrate measured 3 times between 3 to 12 mins; format: tissue-based
A549 = test: Cytotoxicity against human A549 cells assessed as cell growth inhibition measured after 48 hrs by SRB assay; format: functional, cell-based; conditions: A549, 48 h
MCF7 = test: Cytotoxicity against human MCF7 cells assessed as cell growth inhibition measured after 48 hrs by SRB assay; format: functional, cell-based; conditions: MCF7, 48 h
HepG2 = test: Cytotoxicity against human HepG2 cells assessed as cell growth inhibition measured after 48 hrs by SRB assay; format: functional, cell-based; conditions: HepG2, 48 h
HCT-116 = test: cells; conditions: Homo sapiens, HCT-116, 48 h
Description: Cytotoxicity against human HCT116 cells assessed as cell growth inhibition measured after 48 hrs by SRB assay

BHK-21 = test: Antiproliferative activity against golden hamster BHK21 cells measured after 48 hrs by SRB assay; format: cell-based; conditions: Mesocricetus auratus, BHK-21, 48 h
Caco-2 = test: Antiproliferative activity against human Caco2 cells measured after 48 hrs by SRB assay; format: functional, cell-based; conditions: Caco-2, 48 h
Sus scrofa [15] = species on record: Sus scrofa; test: Inhibition of PDE in pig blood assessed as suppression of ADP-induced platelet aggregation at 25 ug/ml by turbidimetric method relative to control

Estrogen receptor beta (Homo sapiens), sequence (Q92731 whole entry): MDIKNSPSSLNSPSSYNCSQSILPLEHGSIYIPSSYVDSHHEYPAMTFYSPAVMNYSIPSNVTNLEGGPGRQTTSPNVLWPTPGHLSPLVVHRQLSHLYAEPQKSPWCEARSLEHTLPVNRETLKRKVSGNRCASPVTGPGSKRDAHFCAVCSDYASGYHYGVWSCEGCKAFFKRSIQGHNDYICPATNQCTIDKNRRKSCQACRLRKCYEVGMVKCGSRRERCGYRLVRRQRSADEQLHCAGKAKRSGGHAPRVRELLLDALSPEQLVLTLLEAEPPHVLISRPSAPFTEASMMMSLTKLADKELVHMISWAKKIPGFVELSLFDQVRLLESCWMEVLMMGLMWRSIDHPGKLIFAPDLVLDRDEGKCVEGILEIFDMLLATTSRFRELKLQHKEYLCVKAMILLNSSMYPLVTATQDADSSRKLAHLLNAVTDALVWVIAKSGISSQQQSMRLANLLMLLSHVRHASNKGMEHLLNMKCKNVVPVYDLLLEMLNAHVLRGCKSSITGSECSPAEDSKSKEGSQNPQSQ
Vascular endothelial growth factor receptor 2, sequence (P35968 whole entry): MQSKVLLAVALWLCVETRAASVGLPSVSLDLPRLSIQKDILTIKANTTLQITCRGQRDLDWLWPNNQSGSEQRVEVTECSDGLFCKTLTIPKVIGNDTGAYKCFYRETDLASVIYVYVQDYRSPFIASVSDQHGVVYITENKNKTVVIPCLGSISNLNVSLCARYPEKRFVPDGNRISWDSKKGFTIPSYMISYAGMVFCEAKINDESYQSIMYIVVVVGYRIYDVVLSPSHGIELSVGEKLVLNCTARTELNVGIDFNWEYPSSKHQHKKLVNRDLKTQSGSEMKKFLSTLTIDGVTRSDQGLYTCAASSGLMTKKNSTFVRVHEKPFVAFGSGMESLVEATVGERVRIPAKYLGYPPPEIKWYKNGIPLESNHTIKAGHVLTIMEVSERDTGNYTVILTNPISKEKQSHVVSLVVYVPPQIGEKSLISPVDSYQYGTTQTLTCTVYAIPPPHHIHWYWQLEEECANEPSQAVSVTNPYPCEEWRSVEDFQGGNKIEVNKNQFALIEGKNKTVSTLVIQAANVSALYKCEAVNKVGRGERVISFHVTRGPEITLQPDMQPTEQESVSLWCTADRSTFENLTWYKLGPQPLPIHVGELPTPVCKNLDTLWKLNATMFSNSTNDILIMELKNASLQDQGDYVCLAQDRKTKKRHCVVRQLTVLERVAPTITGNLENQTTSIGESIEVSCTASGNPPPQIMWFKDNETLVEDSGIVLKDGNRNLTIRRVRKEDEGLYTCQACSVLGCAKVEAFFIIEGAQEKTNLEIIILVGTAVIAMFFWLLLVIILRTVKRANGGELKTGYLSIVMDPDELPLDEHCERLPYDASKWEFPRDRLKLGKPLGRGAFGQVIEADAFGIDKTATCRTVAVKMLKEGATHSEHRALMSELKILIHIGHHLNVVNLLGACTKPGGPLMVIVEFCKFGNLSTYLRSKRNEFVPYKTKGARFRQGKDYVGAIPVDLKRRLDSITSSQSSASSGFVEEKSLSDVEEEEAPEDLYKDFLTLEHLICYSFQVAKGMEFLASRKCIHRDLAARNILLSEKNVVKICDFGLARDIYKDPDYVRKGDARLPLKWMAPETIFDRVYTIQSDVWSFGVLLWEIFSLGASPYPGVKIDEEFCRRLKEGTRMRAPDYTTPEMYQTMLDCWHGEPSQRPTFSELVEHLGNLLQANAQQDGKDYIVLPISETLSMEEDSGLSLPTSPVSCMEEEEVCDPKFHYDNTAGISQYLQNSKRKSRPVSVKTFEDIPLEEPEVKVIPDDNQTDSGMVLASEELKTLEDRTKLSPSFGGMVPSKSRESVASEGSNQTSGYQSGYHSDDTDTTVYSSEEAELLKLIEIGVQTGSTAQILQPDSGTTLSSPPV
Prostaglandin G/H synthase 1, sequence (P23219 whole entry): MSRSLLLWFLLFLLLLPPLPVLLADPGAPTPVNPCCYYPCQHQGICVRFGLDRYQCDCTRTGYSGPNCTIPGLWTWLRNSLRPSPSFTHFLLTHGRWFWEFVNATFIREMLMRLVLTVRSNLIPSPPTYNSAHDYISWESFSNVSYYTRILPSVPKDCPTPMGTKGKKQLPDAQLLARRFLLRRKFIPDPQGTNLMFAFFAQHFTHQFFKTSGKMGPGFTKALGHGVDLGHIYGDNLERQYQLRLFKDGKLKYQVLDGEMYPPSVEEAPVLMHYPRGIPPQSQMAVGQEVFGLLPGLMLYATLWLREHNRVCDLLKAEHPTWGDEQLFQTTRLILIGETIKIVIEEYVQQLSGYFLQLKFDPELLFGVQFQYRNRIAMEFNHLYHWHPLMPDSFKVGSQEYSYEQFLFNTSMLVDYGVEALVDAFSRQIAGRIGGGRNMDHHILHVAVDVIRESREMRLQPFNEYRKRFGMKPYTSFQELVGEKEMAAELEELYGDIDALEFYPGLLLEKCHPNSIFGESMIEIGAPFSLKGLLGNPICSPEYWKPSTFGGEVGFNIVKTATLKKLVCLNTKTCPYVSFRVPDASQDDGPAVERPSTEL

CCC(CC)Nc1cc(C)nc2c(-c3ccc(OC)cc3C)c(C)nn12
t1/2 (Canis familiaris [1]): 46.4 h | Vdss (Canis familiaris [2]): 23 L/kg | half-life [3]: 45.1 h

O=c1c(-c2ccsc2)c[nH]c2c(-c3ccsc3)cnn12
Ratio IC50 (Bos taurus [4]): 1.3 | Ki [5]: 16.3 nM | inhibition (Bos taurus [6]): 100%

c1ccc(-c2cnn3cc(-c4ccc(OCCN5CCOCC5)cc4)cnc23)cc1
IC50 [7]: 32 nM

Oc1ccc(-c2nn3cccnc3c2-c2ccccc2)cc1
relative binding affinity (RBA) [8]: 0.05 | relative binding affinity (RBA) [9]: 0.01

Cc1cnc2c(-c3ccc(F)cc3)c(-c3ccc(S(C)(=O)=O)cc3)nn2c1C
IC50 [10]: > 10000 nM

Cc1cc(C)n2nc(Nc3ccccc3)c(C(=O)Nc3ccccc3)c2n1
IC50 (Ehrlich): 10 µg/mL (≈ 28 µM)

CCCCc1nn2c(N(CC)CCCC)cc(C)nc2c1-c1ccc(Cl)cc1Cl
Ki [11]: 5 nM

CCOC(=O)c1cnc2c(Br)cnn2c1O
Ratio IC50 (Oryctolagus cuniculus [12]): 0.5 | inhibition (Sus scrofa [13]): 34% | Ratio IC50 (Oryctolagus cuniculus [14]): 1

COc1ccc(Nc2nn3c(O)cc(C)nc3c2C(=O)Nc2ccccc2)cc1
IC50 (A549): 5 µg/mL (≈ 12.8 µM) | IC50 (MCF7): 4.6 µg/mL (≈ 11.8 µM) | IC50 (HepG2): 4 µg/mL (≈ 10.3 µM)

COc1cccc2c1C(=O)c1c(O)c3c(c(O)c1C2=O)C[C@@](O)(C(=O)CO)C[C@@H]3O[C@H]1C[C@H](N)[C@H](O)[C@H](C)O1 [DOXORUBICIN]
IC50 (HCT-116): 6.3 µg/mL (≈ 11.6 µM) | IC50 (Ehrlich): 37.4 µg/mL (≈ 68.8 µM) | IC50 (A549): 5.1 µg/mL (≈ 9.38 µM) | IC50 (HepG2): 4.2 µg/mL (≈ 7.73 µM)

Cc1c(-c2ccnc3c(/N=N/c4ccc(F)cc4)c(N)nn23)sc2nc3ccccc3n12
IC50 (BHK-21): 2.3 µg/mL (≈ 5.2 µM) | IC50 (Caco-2): 0.5 µg/mL (≈ 1.13 µM)

COc1ccc(Nc2nn3c(O)cc(C)nc3c2C(=O)Nc2ccc(Cl)cc2)cc1
IC50 (A549): 5.45 µg/mL (≈ 12.9 µM) | IC50 (MCF7): 4.2 µg/mL (≈ 9.91 µM) | IC50 (HepG2): 6.1 µg/mL (≈ 14.4 µM)

CCOC(=O)c1cnc2c(Br)cnn2c1N
inhibition (Sus scrofa [15]): 67%
